In brackets after ≈: the same amount, converted by molar mass.
Tests used:
[1] = Artificial light stability of dyed fabrics (colour fastness, ΔE); assay type: physicochemical; conditions: for ΔE: before vs after LED lamp, room temperature, 16 h
Experimental: In order to assess the stability and colour fastness of violacein and violacein derivatives dyed onto fabrics, dyed fabrics were subjected to a number of conditions. Fabrics were dyed according to Example 18 and colour coordinates and colour change before and after exposure to a given condition were determined as described in Example 18. To measure temperature stability, fabrics were incubated in an oven set to 80° c. for 4 h. To measure stability under acid and alkaline conditions, fabrics were fully submerged in water solutions set to pH 8 with NaOH and pH 5 with HCl and incubated at room temperature for 30 minutes. Fabrics were then incubated at 37° c. for 4 h. To measure stability during laundering, fabrics were washed at 30° c. under the “mix” setting of a Siemens IQ300 washing machine, then dried in a Siemens IQ300 dryer until dry. To measure artificial light stability, fabrics were placed under an LED lamp at room temperature for 16 h. To measure UV light stability, fabrics were placed under a UV lamp at room temperature for 1 h.

[2] = Free radical scavenging ability of dyed Nylon 6,6 fabric (DPPH); assay type: biochemical; conditions: dyed Nylon 6,6 fabric strip; for OD517: 1 h in the dark in 5×10^−5 M DPPH in 100% ethanol; for Scavenging ability %: 1 h in the dark in 5×10^−5 M DPPH, vs undyed control
Experimental: Violacein is reported as being a potent antioxidant able to effectively scavenge free radicals. […] To test this, 1.5×1.5 cm dyed Nylon 6,6 fabric strips were incubated in the dark at room temperature for 1 h in 5 mL of a 5×10^−5 M DPPH free radical solution in 100% ethanol. Undyed Nylon 6,6 fabric strips were included as a negative control. After 1 h absorbance was measured at 517 nm and % scavenging ability calculated as above.

[3] = Solubility of violacein in 100% methanol (stock solutions); assay type: physicochemical; conditions: organic solvent or mixture, read-out: soluble in 100% methanol
Text: In Example 7, S. cerevisiae was engineered to produce violacein and 3 other violacein derivatives (deoxyviolacein, proviolacein, and prodeoxyviolacein). However, during cultivation experiments a number of issues were observed. […] On agar plate we also observed a number of colonies losing their colour, indicating rapid selection against the introduced biosynthetic pathway. […] Issues with toxicity, solubility, and product export have significant negative effects on production of these compounds and limit the commercial viability. To overcome these issues, we investigated whether glycosylation of the compounds could provide a positive impact and improve production. Because violacein and violacein derivatives are not naturally glycosylated, we first sought to identify heterologous glycosyltransferase enzymes displaying promiscuous activity towards these compounds by running a series of in vitro glycosyltransferase enzyme assays using violacein and violacein derivatives as substrate

[4] = Acrylic, after test (LED lamp, room temperature, 16 h)
[5] = Bleached cotton, after test (LED lamp, room temperature, 16 h)
[6] = Diacetate, after test (LED lamp, room temperature, 16 h)
[7] = Nylon 6,6, after test (LED lamp, room temperature, 16 h)
[8] = Polyester, after test (LED lamp, room temperature, 16 h)
[9] = Wool, after test (LED lamp, room temperature, 16 h)

Compound O=C1NC(c2c[nH]c3ccccc23)=C/C1=C1\C(=O)Nc2ccccc21 [deoxyviolacein] has an L [1, 4] of 64.84, an a [1, 4] of 0.76 and a b [1, 4] of 2.12. It also gave an L ([1]; Acrylic, before test) of 60.52, an a ([1]; Acrylic, before test) of 1.59 and a b ([1]; Acrylic, before test) of −2.77. It also gave a ΔE ([1]; Acrylic) of 6.58, an L [1, 5] of 62.47 and an a [1, 5] of 2. The b [1, 5] was −6.81, the L ([1]; Bleached cotton, before test) was 60.49 and the a ([1]; Bleached cotton, before test) was 0.97. For the same compound, the b ([1]; Bleached cotton, before test) was −7.49, the ΔE ([1]; Bleached cotton) was 2.33 and the L [1, 6] was 49.82. The a [1, 6] was 9.13, the b [1, 6] was −9.9 and the L ([1]; Diacetate, before test) was 47.05. For the same compound, the a ([1]; Diacetate, before test) was 13.99, the b ([1]; Diacetate, before test) was −17.37 and the ΔE ([1]; Diacetate) was 9.33. For the same compound, the L [1, 7] was 46.23, the a [1, 7] was 5.57 and the b [1, 7] was −18.4. The L ([1]; Nylon 6,6, before test) was 43.65, the a ([1]; Nylon 6,6, before test) was 5.57 and the b ([1]; Nylon 6,6, before test) was −20.95. The ΔE ([1]; Nylon 6,6) was 3.63, the L [1, 8] was 70.32 and the a [1, 8] was 0.28. For the same compound, the b [1, 8] was 2.09, the L ([1]; Polyester, before test) was 64.39 and the a ([1]; Polyester, before test) was 1.76. The b ([1]; Polyester, before test) was −4.83, the ΔE ([1]; Polyester) was 9.23 and the L [1, 9] was 69.63. It also gave an a [1, 9] of 0.44, a b [1, 9] of 3.2 and an L ([1]; Wool, before test) of 64.28. The a ([1]; Wool, before test) was −0.4, the b ([1]; Wool, before test) was −0.37 and the ΔE ([1]; Wool) was 6.49. The OD517 [2] was 1.43 and the Scavenging ability % [2] was 37.05%.

O=C1N=C(c2c[nH]c3ccc(O)cc23)C=C1c1c[nH]c2ccccc12 [proviolacein] gave an L [1, 4] of 58.47, an a [1, 4] of −0.05 and a b [1, 4] of 2.76. The L ([1]; Acrylic, before test) was 56.17, the a ([1]; Acrylic, before test) was −0.68 and the b ([1]; Acrylic, before test) was 3.21. It also gave a ΔE ([1]; Acrylic) of 2.43, an L [1, 5] of 62.69 and an a [1, 5] of 3.04. The b [1, 5] was 3.55, the L ([1]; Bleached cotton, before test) was 58.83 and the a ([1]; Bleached cotton, before test) was −0.52. It also gave a b ([1]; Bleached cotton, before test) of 4.04, a ΔE ([1]; Bleached cotton) of 5.27 and an L [1, 6] of 63.43. The a [1, 6] was 4.56, the b [1, 6] was 7.02 and the L ([1]; Diacetate, before test) was 56.45. The a ([1]; Diacetate, before test) was 3.46, the b ([1]; Diacetate, before test) was 5.75 and the ΔE ([1]; Diacetate) was 7.18. It also gave an L [1, 7] of 51.07, an a [1, 7] of −0.68 and a b [1, 7] of −2.49. It also gave an L ([1]; Nylon 6,6, before test) of 47.03, an a ([1]; Nylon 6,6, before test) of −1.98 and a b ([1]; Nylon 6,6, before test) of −2.52. For the same compound, the ΔE ([1]; Nylon 6,6) was 4.24, the L [1, 8] was 65.01 and the a [1, 8] was −0.35. The b [1, 8] was 1.74, the L ([1]; Polyester, before test) was 59.49 and the a ([1]; Polyester, before test) was −1.38. The b ([1]; Polyester, before test) was 2.13, the ΔE ([1]; Polyester) was 5.63 and the L [1, 9] was 67.51. The a [1, 9] was −0.15, the b [1, 9] was 6.46 and the L ([1]; Wool, before test) was 65.25. The a ([1]; Wool, before test) was −0.55, the b ([1]; Wool, before test) was 5.71 and the ΔE ([1]; Wool) was 2.41. It also gave an OD517 [2] of 1.88 and a Scavenging ability % [2] of 17.27%.

Compound O=C1NC(c2c[nH]c3ccc(O)cc23)=C/C1=C1\C(=O)Nc2ccccc21 [violacein] has a solubility [3] of 5 mM (≈ 1720 µg/mL), an L [1, 4] of 69.82 and an a [1, 4] of 3.01. It also gave a b [1, 4] of 3.46, an L ([1]; Acrylic, before test) of 65.94 and an a ([1]; Acrylic, before test) of 3.06. For the same compound, the b ([1]; Acrylic, before test) was 1.37, the ΔE ([1]; Acrylic) was 4.41 and the L [1, 5] was 62.61. It also gave an a [1, 5] of 4.18, a b [1, 5] of −6.26 and an L ([1]; Bleached cotton, before test) of 60.03. The a ([1]; Bleached cotton, before test) was 2.81, the b ([1]; Bleached cotton, before test) was −7.43 and the ΔE ([1]; Bleached cotton) was 3.15. It also gave an L [1, 6] of 52.2, an a [1, 6] of 6.06 and a b [1, 6] of 1.03. It also gave an L ([1]; Diacetate, before test) of 43.88, an a ([1]; Diacetate, before test) of 8.03 and a b ([1]; Diacetate, before test) of 13.02. It also gave a ΔE ([1]; Diacetate) of 14.73, an L [1, 7] of 34.82 and an a [1, 7] of 4.72. The b [1, 7] was −17.83, the L ([1]; Nylon 6,6, before test) was 38.2 and the a ([1]; Nylon 6,6, before test) was 11.52. It also gave a b ([1]; Nylon 6,6, before test) of −16.9, a ΔE ([1]; Nylon 6,6) of 7.65 and an L [1, 8] of 73.11. For the same compound, the a [1, 8] was 2.28, the b [1, 8] was 1.66 and the L ([1]; Polyester, before test) was 68.58. For the same compound, the a ([1]; Polyester, before test) was 3.06, the b ([1]; Polyester, before test) was −1.75 and the ΔE ([1]; Polyester) was 5.72. For the same compound, the L [1, 9] was 71.32, the a [1, 9] was 1.18 and the b [1, 9] was 3.25. The L ([1]; Wool, before test) was 67.82, the a ([1]; Wool, before test) was 1.06 and the b ([1]; Wool, before test) was 0.85. The ΔE ([1]; Wool) was 4.25, the OD517 [2] was 1.64 and the Scavenging ability % [2] was 27.53%.

Reference: patent US20260092179A1, “GENETICALLY MODIFIED HOST CELLS PRODUCING VIOLACEIN, ANALOGUES, AND DERIVATIVES THEREOF” (OCTARINE BIO APS, priority 2022, published 2026)
